Laboratory results published in patent US11325899B2, “Benzofurane and benzothiophene derivatives as PGE2 receptor modulators” (IDORSIA PHARMACEUTICALS LTD, priority 2017, dated 2022).

Key:
Format in all cases: cell-based
[1] = target: T1, PTGER2 (EP2) (Homo sapiens, UniProt P43116); experiment: hEP2 b-arrestin assay (PathHunter HEK 293 PTGER2 b-arrestin cells); details: antagonistic activity, beta-arrestin assay; read-out: hEP2 b-arr IC50
T1 construct: host or cells: HEK 293 (PathHunter PTGER2 b-arrestin cell line)
T1 sequence (P43116 whole entry): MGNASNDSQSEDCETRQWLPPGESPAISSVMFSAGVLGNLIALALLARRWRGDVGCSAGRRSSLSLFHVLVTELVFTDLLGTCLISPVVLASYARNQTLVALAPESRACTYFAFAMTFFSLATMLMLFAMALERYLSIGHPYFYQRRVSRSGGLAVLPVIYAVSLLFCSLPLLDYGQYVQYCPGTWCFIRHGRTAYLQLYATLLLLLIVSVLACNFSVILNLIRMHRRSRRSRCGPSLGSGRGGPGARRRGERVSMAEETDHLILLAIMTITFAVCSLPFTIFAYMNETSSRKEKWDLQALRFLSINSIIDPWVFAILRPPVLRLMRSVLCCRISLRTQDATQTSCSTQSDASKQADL
How it was run: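 Antagonism measured as inhibition of PGE2-driven β-arrestin 2 recruitment (enzyme fragment complementation, luminescence) in engineered HEK293 EP2 cells. Agonist: 5 μM PGE2, ~EC80, 120 min at 37 °C after 15 min compound preincubation; test range 10 μM-2 nM or 1 μM-0.2 nM, duplicates, IC50 fitted.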

[2] = target: T2, PTGER4 (EP4) (Homo sapiens, UniProt P35408); experiment: hEP4 b-arrestin assay (PathHunter HEK 293 PTGER4 b-arrestin cells); details: antagonistic activity, beta-arrestin assay; read-out: hEP4 b-arr IC50
T2 construct: host or cells: HEK 293 (PathHunter PTGER4 b-arrestin cell line)
T2 sequence (P35408 whole entry): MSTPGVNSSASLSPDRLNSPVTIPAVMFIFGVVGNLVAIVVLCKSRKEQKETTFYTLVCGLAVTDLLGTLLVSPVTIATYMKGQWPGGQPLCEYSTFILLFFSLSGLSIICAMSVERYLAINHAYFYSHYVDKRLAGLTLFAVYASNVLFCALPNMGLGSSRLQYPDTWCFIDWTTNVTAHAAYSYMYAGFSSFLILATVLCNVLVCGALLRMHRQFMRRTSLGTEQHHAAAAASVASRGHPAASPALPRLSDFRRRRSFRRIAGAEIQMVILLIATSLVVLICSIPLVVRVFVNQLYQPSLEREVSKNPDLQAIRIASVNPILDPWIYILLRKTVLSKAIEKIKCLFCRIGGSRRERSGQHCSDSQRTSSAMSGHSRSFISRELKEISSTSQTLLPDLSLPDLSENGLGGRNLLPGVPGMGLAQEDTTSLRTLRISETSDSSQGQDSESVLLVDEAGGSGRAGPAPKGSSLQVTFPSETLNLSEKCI
How it was run: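 β-Arrestin recruitment to EP4 was read as enzyme-fragment-complementation chemiluminescence in stably transfected HEK 293 cells. After 15 min compound preincubation at 37 °C (ranges 10 μM–2 nM or 1 μM–0.2 nM), cells were stimulated 120 min with PGE2 at 20 nM, its EC80. IC50 values were fitted from duplicates, with repeat measurements averaged.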

[3] = target: T3, EP2 receptor (Homo sapiens, UniProt P43116); experiment: hEP2 cAMP assay (SF295 glioblastoma cells, HTRF cAMP, PGE2 stimulation); details: antagonistic activity
T3 construct: SF295 glioblastoma cells express high endogenous EP2 and no EP4; host or cells: SF295 glioblastoma cells
T3 sequence (P43116 whole entry): as the sequence (P43116 whole entry) above
How it was run: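 HTRF cAMP readout gave % cAMP relative to DMSO, fitted to IC50 with duplicate points. Compounds were preincubated 45 min at room temperature with EP2-expressing, EP4-negative SF295 cells in IBMX (2 mM)-containing buffer before a 30 min challenge with PGE2 at 75 nM final, its EC80.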

IC50 [1] | IC50 [2] | IC50 [3] | Structure (SMILES)
24 nM | 405 nM | 95 nM | CCOc1cc(-c2cc(NCCc3c(C)sc4c(C)cccc34)ncn2)ccc1CC(=O)O [Example 109, (4-{6-[2-(2,7-Dimethyl-benzo[b]thiophen-3-yl)-ethylamino]-pyrimidin-4-yl}-2-ethoxy-phenyl)-acetic acid]
25 nM | 403 nM | 160 nM | CCOc1cc(-c2cc(NCCc3c(C)sc4c(C)cc(F)cc34)ncn2)ccc1CC(=O)O [Example 110, (2-Ethoxy-4-{6-[2-(5-fluoro-2,7-dimethyl-benzo[b]thiophen-3-yl)-ethylamino]-pyrimidin-4-yl}-phenyl)-acetic acid]
42 nM | 665 nM | 188 nM | CCOc1cc(-c2cc(NCCc3c(C)sc4c(C)c(F)ccc34)ncn2)ccc1CC(=O)O [Example 112, (2-Ethoxy-4-{6-[2-(6-fluoro-2,7-dimethyl-benzo[b]thiophen-3-yl)-ethylamino]-pyrimidin-4-yl}-phenyl)-acetic acid]
16 nM | 208 nM | 8 nM | Cc1sc2c(C)cc(F)cc2c1CCNc1cc(-c2ccc(C(=O)O)c(OC(F)F)c2)ncn1 [Example 115, 2-Difluoromethoxy-4-{6-[2-(5-fluoro-2,7-dimethyl-benzo[b]thiophen-3-yl)-ethylamino]-pyrimidin-4-yl}-benzoic acid]
30 nM | 297 nM | 35 nM | COc1ccc(Cl)c2c(CCNc3cc(-c4ccc(C(=O)O)c(OC(F)F)c4)ncn3)c(C)sc12 [Example 116, 4-{6-[2-(4-Chloro-7-methoxy-2-methyl-benzo[b]thiophen-3-yl)-ethylamino]-pyrimidin-4-yl}-2-difluoromethoxy-benzoic acid]
20 nM | 23 nM | 101 nM | CCOc1cc(-c2cc(NCCc3c(C)sc4c(OC)ccc(F)c34)ncn2)ccc1OCC(=O)O [Example 117, (2-Ethoxy-4-{6-[2-(4-fluoro-7-methoxy-2-methyl-benzo[b]thiophen-3-yl)-ethylamino]-pyrimidin-4-yl}-phenoxy)-acetic acid]
16 nM | 29 nM | 112 nM | CCOc1cc(-c2cc(NCCc3c(C)sc4c(C)ccc(F)c34)ncn2)ccc1OCC(=O)O [Example 118, (2-Ethoxy-4-{6-[2-(4-fluoro-2,7-dimethyl-benzo[b]thiophen-3-yl)-ethylamino]-pyrimidin-4-yl}-phenoxy)-acetic acid]
21 nM | 143 nM | 119 nM | CCOc1cc(-c2cc(NCCc3c(C)sc4c(C)c(F)ccc34)ncn2)ccc1OCC(=O)O [Example 119, (2-Ethoxy-4-{6-[2-(6-fluoro-2,7-dimethyl-benzo[b]thiophen-3-yl)-ethylamino]-pyrimidin-4-yl}-phenoxy)-acetic acid]
29 nM | 290 nM | 59 nM | CCOc1cc(-c2cc(NCCc3c(C)oc4c(Cl)cccc34)ncn2)ccc1OCC(=O)O [Example 120, (4-{6-[2-(7-Chloro-2-methyl-benzofuran-3-yl)-ethylamino]-pyrimidin-4-yl}-2-ethoxy-phenoxy)-acetic acid]
27 nM | 75 nM | 155 nM | CCOc1cc(-c2cc(NCCc3c(C)oc4c(OC)cc(Cl)cc34)ncn2)ccc1OCC(=O)O [Example 121, (4-{6-[2-(5-Chloro-7-methoxy-2-methyl-benzofuran-3-yl)-ethylamino]-pyrimidin-4-yl}-2-ethoxy-phenoxy)-acetic acid]
14 nM | 83 nM | 40 nM | CCOc1cc(-c2cc(NCCc3c(C)sc4c(C)cccc34)ncn2)ccc1OCC(=O)O [Example 122, (4-{6-[2-(2,7-Dimethyl-benzo[b]thiophen-3-yl)-ethylamino]-pyrimidin-4-yl}-2-ethoxy-phenoxy)-acetic acid]
6 nM | 1410 nM | 15 nM | Cc1oc2ccccc2c1CCNc1cc(-c2ccc(C(=O)O)c(SC3CCC3)c2)ncn1 [Example 129, 2-Cyclobutylsulfanyl-4-{6-[2-(2-methyl-benzofuran-3-yl)-ethylamino]-pyrimidin-4-yl}-benzoic acid]
12 nM | 193 nM | 20 nM | Cc1sc2c(C)cccc2c1CCNc1cc(-c2ccc(C(=O)O)c(SC3CCC3)c2)ncn1 [Example 130, 2-Cyclobutylsulfanyl-4-{6-[2-(2,7-dimethyl-benzo[b]thiophen-3-yl)-ethylamino]-pyrimidin-4-yl}-benzoic acid]
12 nM | 1220 nM | 22 nM | Cc1sc2c(C)cccc2c1CCNc1cc(-c2ccc(C(=O)O)c(SC3COC3)c2)ncn1 [Example 131, 4-{6-[2-(2,7-Dimethyl-benzo[b]thiophen-3-yl)-ethylamino]-pyrimidin-4-yl}-2-(oxetan-3-ylsulfanyl)-benzoic acid]
12 nM | 41 nM | 38 nM | CCOc1cc(-c2cc(NCCc3c(C)sc4c(C)cc(F)cc34)ncn2)ccc1-c1nnn[nH]1 [Example 142, {6-[3-Ethoxy-4-(1H-tetrazol-5-yl)-phenyl]-pyrimidin-4-yl}-[2-(5-fluoro-2,7-dimethyl-benzo[b]thiophen-3-yl)-ethyl]-amine]

The remaining lines, values behind:

Structure (SMILES) | IC50 [1] | IC50 [2] | IC50 [3]
CCCCOc1cc(-c2cc(NCCc3c(C)sc4c(C)cc(F)cc34)ncn2)ccc1C(=O)O [Example 127, 2-Butoxy-4-{6-[2-(5-fluoro-2,7-dimethyl-benzo[b]thiophen-3-yl)-ethylamino]-pyrimidin-4-yl}-benzoic acid] | 16 nM | 225 nM | 106 nM
O=C(O)c1ccc(-c2cc(NCCc3csc4ccccc34)ncn2)cc1OC1CCC1 [Example 132, 4-[6-(2-Benzo[b]thiophen-3-yl-ethylamino)-pyrimidin-4-yl]-2-cyclobutoxy-benzoic acid] | 58 nM | 561 nM | 167 nM
COc1cc(Cl)cc2c(CCNc3cc(-c4ccc(C(=O)O)c(OC5CCC5)c4)ncn3)c(C)oc12 [Example 133, 4-{6-[2-(5-Chloro-7-methoxy-2-methyl-benzofuran-3-yl)-ethylamino]-pyrimidin-4-yl}-2-cyclobutoxy-benzoic acid] | 25 nM | 74 nM | 68 nM
COc1ccc(F)c2c(CCNc3cc(-c4ccc(C(=O)O)c(OC5CCC5)c4)ncn3)c(C)sc12 [Example 134, 2-Cyclobutoxy-4-{6-[2-(4-fluoro-7-methoxy-2-methyl-benzo[b]thiophen-3-yl)-ethylamino]-pyrimidin-4-yl}-benzoic acid] | 27 nM | 893 nM | 46 nM
COc1ccc(Cl)c2c(CCNc3cc(-c4ccc(C(=O)O)c(OC5CCC5)c4)ncn3)c(C)sc12 [Example 135, 4-{6-[2-(4-Chloro-7-methoxy-2-methyl-benzo[b]thiophen-3-yl)-ethylamino]-pyrimidin-4-yl}-2-cyclobutoxy-benzoic acid] | 14 nM | 235 nM | 30 nM
Cc1sc2c(C)ccc(F)c2c1CCNc1cc(-c2ccc(C(=O)O)c(OC3CCC3)c2)ncn1 [Example 136, 2-Cyclobutoxy-4-{6-[2-(4-fluoro-2,7-dimethyl-benzo[b]thiophen-3-yl)-ethylamino]-pyrimidin-4-yl}-benzoic acid] | 13 nM | 155 nM | 91 nM
Cc1oc2c(Cl)cccc2c1CCNc1cc(-c2ccc(C(=O)O)c(OC3CCC3)c2)ncn1 [Example 137, 4-{6-[2-(7-Chloro-2-methyl-benzofuran-3-yl)-ethylamino]-pyrimidin-4-yl}-2-cyclobutoxy-benzoic acid] | 15 nM | 258 nM | 49 nM
Cc1sc2c(C)cc(F)cc2c1CCNc1cc(-c2ccc(C(=O)O)c(OC3CCC3)c2)ncn1 [Example 138, 2-Cyclobutoxy-4-{6-[2-(5-fluoro-2,7-dimethyl-benzo[b]thiophen-3-yl)-ethylamino]-pyrimidin-4-yl}-benzoic acid] | 14 nM | 269 nM | 75 nM
COc1ccc(F)c2c(CCNc3cc(-c4ccc(C(=O)O)c(OC5CCC5)c4)ncn3)c(C)oc12 [Example 139, 2-Cyclobutoxy-4-{6-[2-(4-fluoro-7-methoxy-2-methyl-benzofuran-3-yl)-ethylamino]-pyrimidin-4-yl}-benzoic acid] | 51 nM | 209 nM | 245 nM
Cc1oc2c(C)cc(F)cc2c1CCNc1cc(-c2ccc(C(=O)O)c(OC3CCC3)c2)ncn1 [Example 140, 2-Cyclobutoxy-4-{6-[2-(5-fluoro-2,7-dimethyl-benzofuran-3-yl)-ethylamino]-pyrimidin-4-yl}-benzoic acid] | 37 nM | 1420 nM | 72 nM
COc1cc(F)c(F)c2c(CCNc3cc(-c4ccc(C(=O)O)c(OC5CCC5)c4)ncn3)c(C)oc12 [Example 141, 2-Cyclobutoxy-4-{6-[2-(4,5-difluoro-7-methoxy-2-methyl-benzofuran-3-yl)-ethylamino]-pyrimidin-4-yl}-benzoic acid] | 140 nM | 340 nM | 111 nM
